According to ChEMBL document CHEMBL1201862, “PubChem BioAssay data set” (2004):
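A five-concentration, 48-hour dose response in 96-well plates underlies each endpoint, interpolated linearly between surrounding concentrations. GI50 = concentration required for 50% inhibition of growth.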 Activity calls are given as the source filed them. No stated cut-off is given here; in the data, active = GI50 up to about 1.1 µM and inactive = higher.

How the values were obtained:
Assay in all cases: NCI-60 cell line screen, 48 h
NCI-H23 = system: NCI-H23
LOX IMVI = system: LOX IMVI
M14 = system: M14
EKVX = system: EKVX
NCI-H226 = system: NCI-H226
SF-268 = system: SF-268
HOP-92 = system: HOP-92
SK-MEL-2 = system: SK-MEL-2
SNB-19 = system: SNB-19
TK-10 = system: TK-10
HL-60 = system: HL-60
HCT-15 = system: HCT-15
IGROV-1 = system: IGROV-1
HOP-62 = system: HOP-62
OVCAR-8 = system: OVCAR-8
OVCAR-4 = system: OVCAR-4
HCC 2998 = system: HCC 2998
OVCAR-5 = system: OVCAR-5

SMILES | GI50 (NCI-H23) | GI50 (LOX IMVI) | GI50 (M14) | GI50 (EKVX) | GI50 (NCI-H226) | GI50 (SF-268) | GI50 (HOP-92) | GI50 (SK-MEL-2) | GI50 (SNB-19) | GI50 (TK-10) | GI50 (HL-60) | GI50 (HCT-15) [µM] | GI50 (IGROV-1) | GI50 (HOP-62) | GI50 (OVCAR-8) | GI50 (OVCAR-4) | GI50 (HCC 2998) | GI50 (OVCAR-5)
COc1ccc(C(=O)C(c2ccc(OC)cc2)C2(O)C(=O)Nc3ccccc32)cc1 (stereo not drawn) | > 100 µM (inactive) | 72.9 µM (inactive) | > 100 µM (inactive) | > 100 µM (inactive) | > 100 µM (inactive) | > 100 µM (inactive) | > 100 µM (inactive) | > 100 µM (inactive) | > 100 µM (inactive) | > 100 µM (inactive) | 98.6 µM (inactive) | > 100 | > 100 µM (inactive) |  |  |  |  | 
CCOC(=O)Cc1c(Cc2[nH]c(C(=O)OCc3ccccc3)c(CC(=O)OCC)c2CC(=O)OCC)[nH]c(C(=O)OCc2ccccc2)c1CC(=O)OCC |  |  | > 100 µM (inactive) |  |  | > 100 µM (inactive) | > 100 µM (inactive) |  | > 100 µM (inactive) |  | > 100 µM (inactive) | > 100 | > 100 µM (inactive) | > 100 µM (inactive) | > 100 µM (inactive) |  |  | 
COC(=O)c1cccc2c3ccccc3c3ccccc3c12 | 23.1 µM (inactive) | 29.4 µM (inactive) | 28.5 µM (inactive) | > 100 µM (inactive) | > 100 µM (inactive) | 37.2 µM (inactive) |  | 24.8 µM (inactive) | 30.4 µM (inactive) | 46.5 µM (inactive) | 23.3 µM (inactive) | 35.2 | 62.8 µM (inactive) | > 100 µM (inactive) | 24.4 µM (inactive) | 64.3 µM (inactive) | 43.1 µM (inactive) | 49.1 µM (inactive)
CC(C)CCCC(C)[C@H]1CCC2[C@H]3C(CC[C@@]21C)[C@@]1(C)CCC=C[C@]12C[C@@H]2[C@@H]3O (stereo partly drawn) |  | > 100 µM (inactive) | > 100 µM (inactive) | > 100 µM (inactive) | > 100 µM (inactive) | > 100 µM (inactive) | > 100 µM (inactive) |  | > 100 µM (inactive) | > 100 µM (inactive) | > 100 µM (inactive) | > 100 | > 100 µM (inactive) | > 100 µM (inactive) | > 100 µM (inactive) | > 100 µM (inactive) | > 100 µM (inactive) | > 100 µM (inactive)
C#CCN(N=O)C(=O)NCCCCC(NC(C)=O)C(=O)NCc1ccccc1 (stereo not drawn) | > 100 µM (inactive) | > 100 µM (inactive) | > 100 µM (inactive) | > 100 µM (inactive) | > 100 µM (inactive) | > 100 µM (inactive) | > 100 µM (inactive) |  | > 100 µM (inactive) | > 100 µM (inactive) |  | > 100 | > 100 µM (inactive) | > 100 µM (inactive) | > 100 µM (inactive) | > 100 µM (inactive) | > 100 µM (inactive) | > 100 µM (inactive)
S=C1NCCN1 | > 100 µM (inactive) | > 100 µM (inactive) | > 100 µM (inactive) | > 100 µM (inactive) | > 100 µM (inactive) | > 100 µM (inactive) | > 100 µM (inactive) | > 100 µM (inactive) | > 100 µM (inactive) | > 100 µM (inactive) | > 100 µM (inactive) | > 100 | > 100 µM (inactive) | > 100 µM (inactive) | > 100 µM (inactive) | > 100 µM (inactive) |  | > 100 µM (inactive)
Cc1cccc(C(C)(C)C)c1NC(=O)CCl | > 100 µM (inactive) | > 100 µM (inactive) | > 100 µM (inactive) | > 100 µM (inactive) | > 100 µM (inactive) | > 100 µM (inactive) |  | > 100 µM (inactive) | > 100 µM (inactive) | > 100 µM (inactive) | > 100 µM (inactive) |  | > 100 µM (inactive) | > 100 µM (inactive) | > 100 µM (inactive) | > 100 µM (inactive) | > 100 µM (inactive) | 
CC(=O)Nc1ccc(/C=c2\sc3nnc(/C=C/c4ccccc4)n3c2=O)cc1 | > 50 µM (inactive) | > 50 µM (inactive) | > 50 µM (inactive) | > 50 µM (inactive) | > 50 µM (inactive) | > 50 µM (inactive) |  | > 50 µM (inactive) | > 50 µM (inactive) | > 50 µM (inactive) | > 50 µM (inactive) |  | > 50 µM (inactive) | > 50 µM (inactive) | > 50 µM (inactive) | > 50 µM (inactive) | > 50 µM (inactive) | > 50 µM (inactive)
CCOC(=O)c1cc(C(=O)O)c(=O)n2c1[nH]c1ccccc12 | 26.9 µM (inactive) |  | > 100 µM (inactive) | > 100 µM (inactive) |  | 61 µM (inactive) |  | > 100 µM (inactive) | 44.3 µM (inactive) | > 100 µM (inactive) | > 100 µM (inactive) | 46.7 | 88.9 µM (inactive) | > 100 µM (inactive) | > 100 µM (inactive) | > 100 µM (inactive) | > 100 µM (inactive) | 
CS(=O)(=O)OC1CCC2(C#N)CCC1C2=O (stereo not drawn) | > 100 µM (inactive) | > 100 µM (inactive) | 71.3 µM (inactive) | > 100 µM (inactive) | > 100 µM (inactive) | > 100 µM (inactive) |  | > 100 µM (inactive) | > 100 µM (inactive) | > 100 µM (inactive) | > 100 µM (inactive) | 12.1 | > 100 µM (inactive) | > 100 µM (inactive) | > 100 µM (inactive) | > 100 µM (inactive) | 46.1 µM (inactive) | > 100 µM (inactive)
CCn1c2ccccc2c2ccc3c(c21)C(=O)c1ccccc1C3=O | > 100 µM (inactive) |  | > 100 µM (inactive) | 44.8 µM (inactive) | > 100 µM (inactive) | > 100 µM (inactive) | 82.2 µM (inactive) |  | > 100 µM (inactive) |  | 36.8 µM (inactive) | > 100 | > 100 µM (inactive) | > 100 µM (inactive) | > 100 µM (inactive) | > 100 µM (inactive) | > 100 µM (inactive) | 
Cc1ccc(/C=C/C(=O)C(C)C)cc1 | 46.6 µM (inactive) |  | 58.7 µM (inactive) | > 100 µM (inactive) |  | > 100 µM (inactive) | 41.8 µM (inactive) | 36.3 µM (inactive) | 84.7 µM (inactive) | > 100 µM (inactive) |  |  | 92 µM (inactive) |  | 96.8 µM (inactive) | > 100 µM (inactive) | > 100 µM (inactive) | 18.4 µM (inactive)
O=C(O)C1=C(O)C(C(=O)O)C23CCCCCCCCCCC12C(C(=O)O)C(O)=C3C(=O)O (stereo not drawn) | > 100 µM (inactive) |  | > 100 µM (inactive) | > 100 µM (inactive) | > 100 µM (inactive) | > 100 µM (inactive) | > 100 µM (inactive) | > 100 µM (inactive) | > 100 µM (inactive) | > 100 µM (inactive) | > 100 µM (inactive) | > 100 | > 100 µM (inactive) |  | > 100 µM (inactive) |  | > 100 µM (inactive) | > 100 µM (inactive)
CC1(S)CC2C(CC1Sc1ccccc1)C2(C)C (stereo not drawn) | > 100 µM (inactive) |  | > 100 µM (inactive) | > 100 µM (inactive) | > 100 µM (inactive) | > 100 µM (inactive) | > 100 µM (inactive) | > 100 µM (inactive) |  | > 100 µM (inactive) | > 100 µM (inactive) | > 100 | > 100 µM (inactive) |  | > 100 µM (inactive) | > 100 µM (inactive) | > 100 µM (inactive) | > 100 µM (inactive)
CN(C)CCS/C(=N\c1ccccc1)N1CCCCC1 | 19.1 µM (inactive) | 16.3 µM (inactive) | 16.4 µM (inactive) |  | 7.41 µM (inactive) | 18.4 µM (inactive) | 13.7 µM (inactive) | 16.5 µM (inactive) | 86.9 µM (inactive) | 18 µM (inactive) | 11.4 µM (inactive) | 16.4 | 16 µM (inactive) | > 100 µM (inactive) | 17.5 µM (inactive) | 19.1 µM (inactive) |  | 17.6 µM (inactive)
Cc1cccc(NC(=O)C(=O)C(C2OC(=O)c3ccccc32)[N+](=O)[O-])c1C (stereo not drawn) | 5.46 µM (inactive) | 2.4 µM (inactive) | 13.8 µM (inactive) | 17.6 µM (inactive) | 12.6 µM (inactive) | 7.52 µM (inactive) |  | 5.06 µM (inactive) | 16.2 µM (inactive) | 18 µM (inactive) | 2.37 µM (inactive) | 5.21 | 9.82 µM (inactive) | 17.2 µM (inactive) | 13.2 µM (inactive) | 8.11 µM (inactive) | 13.8 µM (inactive) | 19.1 µM (inactive)
COC(=O)C1=C(C)N(NC(=O)c2ccccc2)C(C)(O)C12CCOC2=O (stereo not drawn) | > 100 µM (inactive) | > 100 µM (inactive) | > 100 µM (inactive) | > 100 µM (inactive) | > 100 µM (inactive) | > 100 µM (inactive) |  | 0.608 µM (active) | > 100 µM (inactive) | > 100 µM (inactive) | > 100 µM (inactive) | > 100 | > 100 µM (inactive) | > 100 µM (inactive) | > 100 µM (inactive) | > 100 µM (inactive) | > 100 µM (inactive) | > 100 µM (inactive)
Cc1ccc(/C=C/C(=O)c2ccc(Cl)c(Cl)c2)cc1 | > 100 µM (inactive) | > 100 µM (inactive) | > 100 µM (inactive) | > 100 µM (inactive) | > 100 µM (inactive) | > 100 µM (inactive) |  | > 100 µM (inactive) | > 100 µM (inactive) | > 100 µM (inactive) | > 100 µM (inactive) |  | > 100 µM (inactive) | > 100 µM (inactive) | > 100 µM (inactive) | > 100 µM (inactive) | > 100 µM (inactive) | > 100 µM (inactive)
